Laboratory results reported in patent US10794932B2, “Biosensor for the detection of a biological target, and method for manufacturing the same” (The Governing Council of The University of Toronto, priority 2016, dated 2020).
“And” between values parts separate entries of the source, which are not always exact repeats. Equal entries are not always repeated.

How the values were obtained:
TLR2 = target: T1, TLR2 (Mus musculus, UniProt Q9QUN7); experiment: TLR multiplex sensor, EIS film resistance before/after exposure (Example 5), TLR2 sensor; assay type: binding; conditions: exposure 20 minutes
T1 sequence (Q9QUN7 25-587): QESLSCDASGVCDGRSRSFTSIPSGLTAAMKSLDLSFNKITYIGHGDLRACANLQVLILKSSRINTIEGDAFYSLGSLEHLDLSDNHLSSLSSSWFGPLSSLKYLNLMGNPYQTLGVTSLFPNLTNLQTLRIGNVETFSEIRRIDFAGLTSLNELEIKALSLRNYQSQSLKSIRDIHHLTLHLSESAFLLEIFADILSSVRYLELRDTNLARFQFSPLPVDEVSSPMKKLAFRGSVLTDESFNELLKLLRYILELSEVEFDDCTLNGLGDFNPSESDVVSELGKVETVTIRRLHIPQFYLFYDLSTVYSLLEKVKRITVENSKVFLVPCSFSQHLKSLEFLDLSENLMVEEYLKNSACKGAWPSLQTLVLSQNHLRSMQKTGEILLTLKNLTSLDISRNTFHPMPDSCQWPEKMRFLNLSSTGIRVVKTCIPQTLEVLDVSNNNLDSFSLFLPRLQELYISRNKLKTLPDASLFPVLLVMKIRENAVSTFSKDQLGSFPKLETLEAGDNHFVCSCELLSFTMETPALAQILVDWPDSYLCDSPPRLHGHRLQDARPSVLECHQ
Experimental: For each multiplex TLR sensor, 5 separate gold electrodes were used for binding TLR 1 to 5. The 5 modified electrodes/sensors were exposed to the analyte solution and evaluated one by one using potentiostats and electrochemical cells.
The preparation of each TLR biosensor was evaluated using EIS. It is understood that cyclic voltammetry as well as electrochemical impedance microscopy can also be used for monitoring the modification. […] Ethanolamine was then applied to deactivate unreacted LPA. Due to dissociation of unspecific absorbed TLR, the Rct dropped slightly. Experimental curves were evaluated using a model to obtain the Rct values, which can be seen at FIG. 9. Measurements from at least triplicated samples prepared were used to obtain statistic information.
The TLR1 sensor was exposed to an E. coli K12 whole-cell buffer solution for 20 minutes. The sensor was then removed, washed thoroughly and characterized in the electrochemical cell measuring the Rct again. The difference in Rct before and after exposure is the response triggered by the target. The same protocol was carried out for all remaining TLRs (TLRs 2-5) to obtain one set of pattern for E. coli K12 (FIGS. 10b to 10e). Multiple sets were investigated for statistical relevance. […]

rmTLR2 = experiment: Label-free TLR2 sensor, EIS detection of Pam3CSK4 (Example 7); assay type: binding, mouse; conditions: for delta Rct %: 20 minutes; for Rct: before immersion 7784
Experimental: TLR sensors were prepared using fresh, cleaned gold electrodes. The electrodes were immersed in a 2 mM 1-lipoic acid n-hydroxysuccinimide ester (LPA) ethanol solution for 48 hours at 277 K. The electrodes were then rinsed thoroughly using absolute ethanol and blown dry under nitrogen before incubation in 200 μg/ml rmTLR1, 200 μg/ml rmTLR2 and 200 μg/ml ‘rmTLR1 and 2’ mixture for 72 hours at 277 K. The rmTLR1 and 2 mixture was prepared by mixing 200 μg/ml rmTLR1 and 200 μg/ml rmTLR2 with a volume ratio of 1:1. The final concentration of each component was 100 μg/ml and the total concentration of the combined TLR protein content was 200 μg/ml. Following the supplier's recommended conditions, all TLRs were prepared in PBS buffer (pH˜7.4). The electrodes were rinsed with an excess volume of Milli-Q water and blown dry under nitrogen. An ethanolamine-tris buffer solution was prepared by dissolving 1.2 g of ethanolamine and 0.121 g of Tris base in 20 mL of water, the pH was adjusted to 8.4 using hydrochloric acid. TLR-immobilized electrodes were incubated in the ethanolamine solution for one hour at room temperature in order to block any remaining unreacted LPA amine sites. The fabricated sensors with immobilized, standalone rmTLR3, rmTLR4/MD-2 and rmTLR5, used for the selectivity test, were prepared using the same protocol described above.
Pam3CSK4 was dissolved in 10 mM HEPES aqueous buffer at pH˜7.4. The blocked rmTLR biosensors were incubated in Pam3CSK4 at various concentrations for 20 minutes. The electrodes were always washed thoroughly with same HEPES buffer (pH˜7.4) after the incubation.
All electrochemical measurements were carried out using a cell with a three-electrode configuration in an enclosed Faraday cage. CV and EIS measurements were completed using a CHI-660b potentiostat (CH Instruments, Austin, Tex.). rmTLR-modified gold electrodes and platinum (Pt) wire were used as the working electrode and the counter electrode, respectively. A reference electrode (Ag/AgCl/3.0M KCl) and a salt bridge, filled with an agar and 1M KNO3 aqueous solution, were inserted to minimize the diffusion of chloride ions into the electrolyte solution. The agar solution was prepared by dissolving 2.0 grams of agar and 10.1 g KNOB in 100 mL of water. The CV and EIS electrolyte was made in a 10 mM HEPES aqueous buffer at pH˜7.4, which consisted of a 5 mM K4Fe(CN)6/5 mM K3Fe(CN)6 as a redox couple with 1M of NaClO4 as the supporting electrolyte. For consistency, the electrochemical measurements were carried out with open-circuit potentials. EIS experiments were conducted in the frequency range of 100,000 to 0.1 Hz with an amplitude of 5 mV. The experimental EIS curves were evaluated to determine the film resistance using ZSimpWin 2.0 software.

## Pam3CSK4
TLR2
  delta Rct %: 35%
rmTLR2
  limit of detection: 10 µM
rmTLR2; 5 μM
  delta Rct %: not significant
rmTLR2; 10 μM
  delta Rct %: 32±6% and ~30%
rmTLR2; 25 μM
  delta Rct %: 42±18%
rmTLR2; 50 μM
  delta Rct %: 80±32%
rmTLR2; after 5 μM
  Rct: 7355 Ω · cm^2
rmTLR2; after 10 μM
  Rct: 9446 Ω · cm^2
rmTLR2; after 25 μM
  Rct: 12770 Ω · cm^2
rmTLR2; after 50 μM
  Rct: 17610 Ω · cm^2
